The values that follow come from US11524096B2, “Wetting agent formulation” (TELEFLEX LIFE SCIENCES PTE. LTD., priority 2016, dated 2022).

Data set [1] in a line: Relative dissolution of propyl gallate depending on sequence of mixing steps. The format is physicochemical. The text has this: In the case where glycerol is employed, it may be necessary to add some heat to the solution in order to achieve full dissolution of the propyl gallate. Further, the sequence of the mixing steps and its effect on the relative dissolution of propyl gallate when all component concentrations and temperature are kept constant, is as follows: • Addition of propylene glycol to propyl gallate, then addition of saline or distilled water: fast reaction (high rate of dissolution of propyl gallate); • Addition of saline/distilled water to propyl gallate, then addition of propylene glycol: slow reaction (low rate of dissolution of propyl gallate); • Addition of propylene glycol to saline/distilled water, then addition of propyl gallate: fast reaction (high rate of dissolution of propyl gallate); • Employing glycerol instead of propylene glycol: slow reaction (low rate of dissolution of propyl gallate).

The conditions of data set [2]: without propylene glycol; cited from earlier work.

`CCCOC(=O)c1cc(O)c(O)c(O)c1` [PG, propyl 3,4,5-trihydroxybenzoate]: the “rate of dissolution of propyl gallate” value is reported as “fast reaction” in data set [1] (Addition of propylene glycol to propyl gallate, then addition of saline or distilled water, concentrations and temperature constant); “fast reaction” in data set [1] (Addition of propylene glycol to saline/distilled water, then addition of propyl gallate); “slow reaction” in data set [1] (Addition of saline/distilled water to propyl gallate, then addition of propylene glycol); “slow reaction” in data set [1] (Employing glycerol instead of propylene glycol). For the same compound, the “solubility in water (in words)” value in data set [2] is “only slightly soluble”.
